Source: the supplement of paper PMC10307832

Each cell line was assayed with O=C(NC1CCNCC1)c1n[nH]cc1NC(=O)c1c(Cl)cccc1Cl [AT-7519] + CS(=O)(=O)CCNCc1ccc(-c2ccc3ncnc(Nc4ccc(OCc5cccc(F)c5)c(Cl)c4)c3c2)o1 [Lapatinib] (partner 2 µM) (assay: relative viability (nuclei count vs DMSO), 5 days (fraction); higher = more cells survive). Details: first compound 0.01 µM.
In short: (§1)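 For relative viability, nuclei counts in treated wells were divided by those in vehicle wells. Lung cancer cell lines had been pin-tool dosed in 1536-well plates the day after seeding and cultured for 5 days, then fixed and stained in one step (final 0.05% Triton X-100, 1% formaldehyde, 1 ug/ml Hoechst) and imaged at 4×. Doses were one drug alone or a fixed anchor-drug dose plus five library-drug doses (not always all listed) in √10 steps, and values are duplicate-plate medians.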

| Cell Line | relative viability |
| --- | --- |
| Calu-6 | 1.12 |
| HCC-366 | 0.868 |
| NCI-H1666 | 0.657 |
| NCI-H596 | 1.05 |
| LK-2 | 0.816 |
| NCI-H2087 | 1.2 |
| SK-MES-1 | 0.455 |
| H3255 | 0.282 |
| COR-L23 | 1.14 |
| COR-L 105 | 0.397 |
| IA-LM | 0.911 |
| LOU-NH91 | 0.786 |
| NCI-H2170 | 0.289 |
| NCI-H2405 | 1.04 |
| HOP-62 | 1.03 |
| HCC-44 | 0.984 |
| A549 | 0.879 |
| LU99A | 1.02 |

| Cell Line | relative viability |
| --- | --- |
| BEN | 0.834 |
| HARA | 0.804 |
| HCC-78 | 0.837 |
| NCI-H322M | 0.648 |
| LCLC-97TM1 | 0.83 |
| NCI-H2009 | 1.09 |
| A-427 | 1.1 |
| NCI-H661 | 0.348 |
| NCI-H1734 | 0.893 |
| NCI-H460 | 1.71 |
| NCI-H2347 | 1.04 |
| SK-LU-1 | 0.726 |
| NCI-H1395 | 1.03 |
| 201T | 1.06 |
| NCI-H1915 | 1.02 |
| HCC-827 | 0.21 |
| LXF-289 | 0.929 |

Same assay, conditions: first compound 0.03162 µM

| Cell Line | relative viability |
| --- | --- |
| Calu-6 | 1.07 |
| HCC-366 | 1.08 |
| NCI-H1666 | 0.579 |
| NCI-H596 | 1.11 |
| LK-2 | 0.951 |
| NCI-H2087 | 1.11 |
| SK-MES-1 | 0.468 |
| H3255 | 0.232 |
| COR-L23 | 0.786 |
| COR-L 105 | 0.397 |
| IA-LM | 0.821 |
| LOU-NH91 | 0.736 |
| NCI-H2170 | 0.305 |
| NCI-H2405 | 1.04 |
| HOP-62 | 0.963 |
| HCC-44 | 1.05 |
| A549 | 1.01 |
| LU99A | 1.07 |

| Cell Line | relative viability |
| --- | --- |
| BEN | 0.68 |
| HARA | 0.622 |
| HCC-78 | 0.79 |
| NCI-H322M | 0.606 |
| LCLC-97TM1 | 0.732 |
| NCI-H2009 | 0.825 |
| A-427 | 0.989 |
| NCI-H661 | 0.383 |
| NCI-H1734 | 1.03 |
| NCI-H460 | 0.877 |
| NCI-H2347 | 1.06 |
| SK-LU-1 | 0.943 |
| NCI-H1395 | 1.14 |
| 201T | 1.03 |
| NCI-H1915 | 0.987 |
| HCC-827 | 0.165 |
| LXF-289 | 0.902 |

Same assay, conditions: first compound 0.3162 µM

| Cell Line | relative viability |
| --- | --- |
| Calu-6 | 0.988 |
| HCC-366 | 0.797 |
| NCI-H1666 | 0.327 |
| NCI-H596 | 1.02 |
| LK-2 | 0.706 |
| NCI-H2087 | 0.998 |
| SK-MES-1 | 0.451 |
| H3255 | 0.294 |
| COR-L23 | 0.325 |
| COR-L 105 | 0.319 |
| IA-LM | 0.658 |
| LOU-NH91 | 0.795 |
| NCI-H2170 | 0.278 |
| NCI-H2405 | 1.03 |
| HOP-62 | 1.06 |
| HCC-44 | 1.1 |
| A549 | 0.856 |
| LU99A | 0.898 |

| Cell Line | relative viability |
| --- | --- |
| BEN | 0.781 |
| HARA | 0.604 |
| HCC-78 | 1.08 |
| NCI-H322M | 0.525 |
| LCLC-97TM1 | 0.805 |
| NCI-H2009 | 0.66 |
| A-427 | 1.03 |
| NCI-H661 | 0.385 |
| NCI-H1734 | 0.928 |
| NCI-H460 | 0.0532 |
| NCI-H2347 | 0.989 |
| SK-LU-1 | 0.766 |
| NCI-H1395 | 0.802 |
| 201T | 1.07 |
| NCI-H1915 | 0.863 |
| HCC-827 | 0.162 |
| LXF-289 | 0.953 |

Same assay, conditions: first compound 1 µM

| Cell Line | relative viability |
| --- | --- |
| Calu-6 | 0.18 |
| HCC-366 | 0.243 |
| NCI-H1666 | 0.347 |
| NCI-H596 | 0.767 |
| LK-2 | 0.706 |
| NCI-H2087 | 0.185 |
| SK-MES-1 | 0.392 |
| H3255 | 0.212 |
| COR-L23 | 0.121 |
| COR-L 105 | 0.293 |
| IA-LM | 0.0627 |
| LOU-NH91 | 0.673 |
| NCI-H2170 | 0.249 |
| NCI-H2405 | 0.719 |
| HOP-62 | 1.05 |
| HCC-44 | 0.979 |
| A549 | 0.349 |
| LU99A | 0.41 |

| Cell Line | relative viability |
| --- | --- |
| BEN | 0.55 |
| HARA | 0.681 |
| HCC-78 | 0.878 |
| NCI-H322M | 0.67 |
| LCLC-97TM1 | 0.758 |
| NCI-H2009 | 0.277 |
| A-427 | 0.929 |
| NCI-H661 | 0.322 |
| NCI-H1734 | 0.427 |
| NCI-H460 | 0.013 |
| NCI-H2347 | 0.935 |
| SK-LU-1 | 0.506 |
| NCI-H1395 | 0.602 |
| 201T | 1.06 |
| NCI-H1915 | 0.8 |
| HCC-827 | 0.157 |
| LXF-289 | 0.912 |

These cell lines were tested with C1=CC2=C(C=C(C(=C2N=C1)O)N=NC3=CC4=C(C=C3)C=C(C=C4)S(=O)(=O)O)S(=O)(=O)O + CS(=O)(=O)N1CCN(Cc2cc3nc(-c4cccc5[nH]ncc45)nc(N4CCOCC4)c3s2)CC1 [Pictilisib] (partner 1 µM) in the same assay as above. Details: first compound 0.08 µM.
In short: as §1

| Cell Line | relative viability |
| --- | --- |
| Calu-6 | 0.903 |
| HCC-366 | 0.142 |
| NCI-H1666 | 0.459 |
| NCI-H596 | 0.408 |
| LK-2 | 0.677 |
| NCI-H2087 | 1.07 |
| SK-MES-1 | 0.444 |
| H3255 | 0.482 |
| COR-L23 | 0.982 |
| COR-L 105 | 0.397 |
| IA-LM | 0.302 |
| LOU-NH91 | 0.57 |
| NCI-H2170 | 0.315 |
| NCI-H2405 | 0.496 |
| HOP-62 | 0.842 |
| HCC-44 | 0.649 |
| A549 | 0.522 |
